One assay addresses T1, purified human HDAC6 (Homo sapiens, UniProt Q9UBN7).
T1 construct: purchased BPS Bioscience 5006
T1 sequence (Q9UBN7 1-1215): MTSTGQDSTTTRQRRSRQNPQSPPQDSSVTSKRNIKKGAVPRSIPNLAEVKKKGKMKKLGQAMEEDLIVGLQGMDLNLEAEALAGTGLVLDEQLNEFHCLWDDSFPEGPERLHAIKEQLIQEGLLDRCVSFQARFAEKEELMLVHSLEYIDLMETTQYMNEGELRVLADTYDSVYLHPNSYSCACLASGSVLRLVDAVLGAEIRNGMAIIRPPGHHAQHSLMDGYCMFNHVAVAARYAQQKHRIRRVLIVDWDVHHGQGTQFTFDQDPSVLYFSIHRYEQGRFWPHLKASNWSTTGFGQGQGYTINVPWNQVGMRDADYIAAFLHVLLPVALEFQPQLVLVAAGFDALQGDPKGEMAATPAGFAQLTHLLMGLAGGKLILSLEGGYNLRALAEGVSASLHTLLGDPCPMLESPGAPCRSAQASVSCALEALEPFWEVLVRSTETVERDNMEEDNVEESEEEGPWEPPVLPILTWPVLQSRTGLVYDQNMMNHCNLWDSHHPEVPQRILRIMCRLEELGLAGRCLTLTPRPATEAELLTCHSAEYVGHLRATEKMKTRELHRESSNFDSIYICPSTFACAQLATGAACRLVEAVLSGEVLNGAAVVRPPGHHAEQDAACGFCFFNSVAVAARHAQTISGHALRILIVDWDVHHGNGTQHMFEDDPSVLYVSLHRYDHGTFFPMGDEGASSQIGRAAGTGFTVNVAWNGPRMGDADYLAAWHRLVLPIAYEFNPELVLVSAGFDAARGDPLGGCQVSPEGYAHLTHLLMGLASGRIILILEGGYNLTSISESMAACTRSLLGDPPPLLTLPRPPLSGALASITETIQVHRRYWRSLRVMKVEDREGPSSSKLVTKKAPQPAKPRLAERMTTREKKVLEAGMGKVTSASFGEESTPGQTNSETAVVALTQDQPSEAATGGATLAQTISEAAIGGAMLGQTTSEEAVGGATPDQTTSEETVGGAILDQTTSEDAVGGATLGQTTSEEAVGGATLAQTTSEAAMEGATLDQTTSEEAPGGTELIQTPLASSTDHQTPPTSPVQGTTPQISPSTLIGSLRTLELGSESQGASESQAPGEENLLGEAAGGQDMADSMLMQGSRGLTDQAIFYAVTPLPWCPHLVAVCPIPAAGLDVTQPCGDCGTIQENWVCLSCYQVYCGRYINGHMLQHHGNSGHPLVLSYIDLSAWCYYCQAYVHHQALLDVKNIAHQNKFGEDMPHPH
Description: HDAC6 Enzyme Assay. Type of assay: biochemical. The note with it: bin: greater than 500 nM and less than 1 μM (lower bound in nM, upper bound in μM). The method, boiled down:
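Purified human HDAC6 incubated 1 h at 30 °C with Ac-Arg-Gly-Lys(Ac)-AMC and compound; trichostatin A stop, trypsin release of AMC, fluorescence Ex 340/Em 460 nm. IC50 from concentration–response relative to DMSO.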
For `CCC[C@H](NC(=O)C(C)(C)C)c1ccc(C(=O)NO)cc1` [Compound I-536, 4-{(1S)-1-[(2,2-dimethylpropanoyl)amino]butyl}-N-hydroxybenzamide], the IC50 (as a rule, the point on the concentration scale where inhibition reaches its midpoint) was 500 to 1000 nM.

The assay is the same for the next values; noted with them: purified human HDAC6, substrate Ac-Arg-Gly-Lys(Ac)-AMC, 1 hour at 30° C.; reported as bins.
Turning to `C[C@@H](NC(=O)Nc1c(F)cccc1F)c1ccc(C(=O)NO)cc1` [Compound I-518, 4-[(1R)-1-({[(2,6-difluorophenyl)amino]carbonyl}amino)ethyl]-N-hydroxybenzamide], the 50% inhibitory concentration (IC50) is below 100 nM.

Take `CC(C)[C@@H](Nc1nc(-c2cc(-c3ccccc3)no2)cs1)c1ccc(C(=O)NO)cc1` [Compound I-519, N-hydroxy-4-((1R)-2-methyl-1-{[4-(3-phenylisoxazol-5-yl)-1,3-thiazol-2-yl]amino}propyl)benzamide]: the IC50 was below 100 nM.

The molecule `CC(C)[C@@H](NC(=O)Nc1c(F)cccc1F)c1ccc(C(=O)NO)cc1` [Compound I-521, 4-[(1R)-1-({[(2,6-difluorophenyl)amino]carbonyl}amino)-2-methylpropyl]-N-hydroxybenzamide] yielded an IC50 below 100 nM.

For the molecule `CC(C)[C@@H](NC(=O)NCCc1ccccc1)c1ccc(C(=O)NO)cc1` [Compound I-522, N-hydroxy-4-[(1R)-2-methyl-1-({[(2-phenylethyl)amino]carbonyl}amino)propyl]benzamide], the IC50 was below 100 nM.

Consider `C[C@@H](NC(=O)Nc1ccccc1-c1ccccc1)c1ccc(C(=O)NO)cc1` [Compound I-523, 4-((1R)-1-{[(biphenyl-2-ylamino)carbonyl]amino}ethyl)-N-hydroxybenzamide], for which the 50% inhibitory concentration (IC50) was below 100 nM.

`CC(C)[C@@H](NC(=O)Nc1cccc2ccccc12)c1ccc(C(=O)NO)cc1` [Compound I-524, N-hydroxy-4-((1R)-2-methyl-1-{[(1-naphthylamino)carbonyl]amino}propyl)benzamide]: the IC50 is below 100 nM.

With `CC(C)[C@@H](NC(=O)Nc1ccc(C#N)cc1)c1ccc(C(=O)NO)cc1` [Compound I-525, 4-[(1R)-1-({[(4-cyanophenyl)amino]carbonyl}amino)-2-methylpropyl]-N-hydroxybenzamide], the half-maximal inhibitory concentration (IC50) was below 100 nM.

For the molecule `CC(C)[C@@H](NC(=O)Nc1ccc2c(c1)CCO2)c1ccc(C(=O)NO)cc1` [Compound I-526, 4-((1R)-1-{[(2,3-dihydro-1-benzofuran-5-ylamino)carbonyl]amino}-2-methylpropyl)-N-hydroxybenzamide], the half-maximal inhibitory concentration (IC50) was below 100 nM.

Consider `C[C@@H](NC(=O)Nc1cccc2ccccc12)c1ccc(C(=O)NO)cc1` [Compound I-527, N-hydroxy-4-((1R)-1-{[(1-naphthylamino)carbonyl]amino}ethyl)benzamide], for which the half-maximal inhibitory concentration (IC50) was below 100 nM.

Molecule `C[C@@H](NC(=O)Nc1ccc2c(c1)CCO2)c1ccc(C(=O)NO)cc1` [Compound I-528, 4-((1R)-1-{[(2,3-dihydro-1-benzofuran-5-ylamino)carbonyl]amino}ethyl)-N-hydroxybenzamide] showed an IC50 below 100 nM.

`CC(C)[C@@H](Nc1nc(C(F)(F)F)cs1)c1ccc(C(=O)NO)cc1` [Compound I-529, N-hydroxy-4-((1R)-2-methyl-1-{[4-(trifluoromethyl)-1,3-thiazol-2-yl]amino}propyl)benzamide] registered an IC50 below 100 nM.

Source of the values: patent US9382197B2, “Substituted hydroxamic acids and uses thereof” (Millennium Pharmaceuticals, Inc., priority 2010, dated 2016).
